ChEMBL document CHEMBL1158397, “Polycyclic cage structures as carrier molecules for neuroprotective non-steroidal anti-inflammatory drugs” (Eur J Med Chem, 2009)
Active and inactive are the calls of the source. The rule behind the calls is not given here.

What was measured:
[1] = Drug level in C57BL/6 mouse blood at 260.935 mg/kg, ip measured after 1 hr by LC-MS/MS analysis; format: ADME, organism-based; design: dose 260.935 mg/kg, route intraperitoneal; conditions: 260.94 mg/kg, read-out: Drug uptake
[2] = Drug level in C57BL/6 mouse brain at 260.935 mg/kg, ip measured after 1 hr by LC-MS/MS analysis; format: ADME, organism-based; design: dose 260.935 mg/kg, route intraperitoneal; conditions: 260.94 mg/kg, read-out: Drug uptake
[3] = Ratio of drug level in brain to blood in C57BL/6 mouse at 260.935 mg/kg, ip measured after 1 hr by LC-MS/MS analysis; format: ADME, organism-based; design: dose 260.935 mg/kg, route intraperitoneal; conditions: 260.94 mg/kg
Brain [4] = test: Antioxidant activity in Sprague-Dawley rat brain homogenate assessed as attenuation of toxin-induced lipid peroxidation at 1 mM by modified TBA assay; format: functional, tissue-based
Brain [5] = test: Drug level in C57BL/6 mouse brain assessed as salicylic acid at 150 mg/kg, ip measured after 1 hr by LC-MS/MS analysis; format: ADME, organism-based; design: dose 150 mg/kg, route intraperitoneal; conditions: in vivo
[6] = Ratio of drug level in brain to blood assessed as salicylic acid in C57BL/6 mouse at 150 mg/kg, ip measured after 1 hr by LC-MS/MS analysis; format: ADME, organism-based; design: dose 150 mg/kg, route intraperitoneal
Blood [7] = test: Drug level in C57BL/6 mouse blood assessed as total salicylate at 150 mg/kg, ip measured after 1 hr by LC-MS/MS analysis; format: ADME, organism-based; design: dose 150 mg/kg, route intraperitoneal; conditions: in vivo
Brain [8] = test: Drug level in C57BL/6 mouse brain assessed as total salicylate at 150 mg/kg, ip measured after 1 hr by LC-MS/MS analysis; format: ADME, organism-based; design: dose 150 mg/kg, route intraperitoneal; conditions: in vivo
[9] = Ratio of drug level in brain to blood assessed as total salicylate in C57BL/6 mouse at 150 mg/kg, ip measured after 1 hr by LC-MS/MS analysis; format: ADME, organism-based; design: dose 150 mg/kg, route intraperitoneal
[10] = Drug level in C57BL/6 mouse blood at 150 mg/kg, ip measured after 1 hr by LC-MS/MS analysis; format: ADME, organism-based; design: dose 150 mg/kg, route intraperitoneal; conditions: read-out: Drug uptake
[11] = Drug level in C57BL/6 mouse brain at 150 mg/kg, ip measured after 1 hr by LC-MS/MS analysis; format: ADME, organism-based; design: dose 150 mg/kg, route intraperitoneal; conditions: read-out: Drug uptake
[12] = Ratio of drug level in brain to blood in C57BL/6 mouse at 150 mg/kg, ip measured after 1 hr by LC-MS/MS analysis; format: ADME, organism-based; design: dose 150 mg/kg, route intraperitoneal
Blood [13] = test: Drug level in C57BL/6 mouse blood assessed as salicylic acid at 150 mg/kg, ip measured after 1 hr by LC-MS/MS analysis; format: ADME, organism-based; design: dose 150 mg/kg, route intraperitoneal; conditions: in vivo
Blood [14] = test: Drug level in C57BL/6 mouse blood assessed as ibuprofen at 305.08 mg/kg, ip measured after 1 hr by LC-MS/MS analysis; format: ADME, organism-based; design: dose 305.08 mg/kg, route intraperitoneal; conditions: in vivo
Brain [15] = test: Drug level in C57BL/6 mouse brain assessed as ibuprofen at 305.08 mg/kg, ip measured after 1 hr by LC-MS/MS analysis; format: ADME, organism-based; design: dose 305.08 mg/kg, route intraperitoneal; conditions: in vivo
[16] = Ratio of drug level in brain to blood assessed as ibuprofen in C57BL/6 mouse at 305.08 mg/kg, ip measured after 1 hr by LC-MS/MS analysis; format: ADME, organism-based; design: dose 305.08 mg/kg, route intraperitoneal
Blood [17] = test: Drug level in C57BL/6 mouse blood assessed as ibuprofen at 246.883 mg/kg, ip measured after 1 hr by LC-MS/MS analysis; format: ADME, organism-based; design: dose 246.883 mg/kg, route intraperitoneal; conditions: in vivo, 246.88 mg/kg
Brain [18] = test: Drug level in C57BL/6 mouse brain assessed as ibuprofen at 246.883 mg/kg, ip measured after 1 hr by LC-MS/MS analysis; format: ADME, organism-based; design: dose 246.883 mg/kg, route intraperitoneal; conditions: in vivo, 246.88 mg/kg
[19] = Ratio of drug level in brain to blood assessed as ibuprofen in C57BL/6 mouse at 246.883 mg/kg, ip measured after 1 hr by LC-MS/MS analysis; format: ADME, organism-based; design: dose 246.883 mg/kg, route intraperitoneal; conditions: 246.88 mg/kg
Blood [20] = test: Drug level in C57BL/6 mouse blood assessed as acetylsalicylic acid at 327.58 mg/kg, ip measured after 1 hr by LC-MS/MS analysis; format: ADME, organism-based; design: dose 327.58 mg/kg, route intraperitoneal; conditions: in vivo
Brain [21] = test: Drug level in C57BL/6 mouse brain assessed as acetylsalicylic acid at 327.58 mg/kg, ip measured after 1 hr by LC-MS/MS analysis; format: ADME, organism-based; design: dose 327.58 mg/kg, route intraperitoneal; conditions: in vivo
[22] = Ratio of drug level in brain to blood assessed as acetylsalicylic acid in C57BL/6 mouse at 327.58 mg/kg, ip measured after 1 hr by LC-MS/MS analysis; format: ADME, organism-based; design: dose 327.58 mg/kg, route intraperitoneal
Blood [23] = test: Drug level in C57BL/6 mouse blood assessed as acetylsalicylic acid at 260.935 mg/kg, ip measured after 1 hr by LC-MS/MS analysis; format: ADME, organism-based; design: dose 260.935 mg/kg, route intraperitoneal; conditions: in vivo, 260.94 mg/kg
Brain [24] = test: Drug level in C57BL/6 mouse brain assessed as acetylsalicylic acid at 260.935 mg/kg, ip measured after 1 hr by LC-MS/MS analysis; format: ADME, organism-based; design: dose 260.935 mg/kg, route intraperitoneal; conditions: in vivo, 260.94 mg/kg
[25] = Ratio of drug level in brain to blood assessed as acetylsalicylic acid in C57BL/6 mouse at 260.935 mg/kg, ip measured after 1 hr by LC-MS/MS analysis; format: ADME, organism-based; design: dose 260.935 mg/kg, route intraperitoneal; conditions: 260.94 mg/kg

**Q.** With `CC(C)Cc1ccc(C(C)C(=O)O)cc1` (stereo not drawn) [IBUPROFEN] as the compound, how does the concentration at 1 h [1] read?
**A.** Its concentration at 1 h is 61.4 ng/mL.

**Q.** And the concentration at 1 h [2]?
**A.** Its concentration at 1 h is 52.5 ng/mL.

**Q.** And the Kp at 1 h [3]?
**A.** Its Kp at 1 h is 0.9.

**Q.** What about the Activity (Brain [4]) of the same compound?
**A.** Its Activity is “Active”.

**Q.** With `CC(=O)Oc1ccccc1C(=O)O` [ASPIRIN] as the compound, how does the Drug uptake (Brain [5]) read?
**A.** Its Drug uptake is 7.37 ng/mL.

**Q.** And the Ratio [6]?
**A.** Its Ratio is 1.06.

**Q.** What about the Drug uptake (Blood [7]) of the same compound?
**A.** The Drug uptake was 41.45 ng/mL.

**Q.** And the Drug uptake (Brain [8])?
**A.** The Drug uptake was 24.6 ng/mL.

**Q.** And the Ratio [9]?
**A.** The Ratio was 0.59.

**Q.** And the Activity (Brain [4])?
**A.** The Activity was “Active”.

**Q.** What about the concentration at 1 h [10] of the same compound?
**A.** The concentration at 1 h was 45.5 ng/mL.

**Q.** What about the concentration at 1 h [11] of the same compound?
**A.** The concentration at 1 h was 22.5 ng/mL.

**Q.** What about the Kp at 1 h [12] of the same compound?
**A.** Its Kp at 1 h is 0.49.

**Q.** What about the Drug uptake (Blood [13]) of the same compound?
**A.** Its Drug uptake is 6.95 ng/mL.

**Q.** For `CC(C)Cc1ccc(C(C)C(=O)OC23C4C5CC6C7C5C2C7C2(OCCCN23)C64)cc1` (stereo not drawn), which Drug uptake (Blood [14]) is on record?
**A.** The Drug uptake was 40.28 ng/mL.

**Q.** What about the Drug uptake (Brain [15]) of the same compound?
**A.** The Drug uptake was 55.8 ng/mL.

**Q.** And the Ratio [16]?
**A.** Its Ratio is 1.39.

**Q.** And the Activity (Brain [4])?
**A.** The Activity was “Active”.

**Q.** Which results are given for `CC(C)Cc1ccc(C(C)C(=O)NC23CC4CC(CC(C4)C2)C3)cc1` (stereo not drawn)?
**A.** Drug uptake (Blood [17]): 30.45 ng/mL; Drug uptake (Brain [18]): 11.83 ng/mL; Ratio [19]: 0.39; Activity (Brain [4]): Active

**Q.** Which Drug uptake (Blood [20]) does the source give for `CC(=O)Oc1ccccc1C(=O)OC12C3C4CC5C6C4C1C6C1(OCCCN12)C53` (stereo not drawn) here?
**A.** The Drug uptake was 44.11 ng/mL.

**Q.** What about the Drug uptake (Brain [21]) of the same compound?
**A.** The Drug uptake was 59.03 ng/mL.

**Q.** What about the Ratio [22] of the same compound?
**A.** The Ratio was 1.34.

**Q.** And the Activity (Brain [4])?
**A.** Its Activity is “Active”.

**Q.** With `CC(=O)Oc1ccccc1C(=O)NC12CC3CC(CC(C3)C1)C2` as the compound, how does the concentration at 1 h [1] read?
**A.** Its concentration at 1 h is 17.4 ng/mL.

**Q.** What about the concentration at 1 h [2] of the same compound?
**A.** The concentration at 1 h was 8.58 ng/mL.

**Q.** And the Kp at 1 h [3]?
**A.** The Kp at 1 h was 0.49.

**Q.** What about the Drug uptake (Blood [23]) of the same compound?
**A.** The Drug uptake was 13.84 ng/mL.

**Q.** What about the Drug uptake (Brain [24]) of the same compound?
**A.** The Drug uptake was 6.81 ng/mL.

**Q.** And the Ratio [25]?
**A.** Its Ratio is 0.49.

**Q.** What about the Activity (Brain [4]) of the same compound?
**A.** Its Activity is “Active”.
